Data reported in US20220326218A1, “COMPOSITION AND METHOD FOR INHIBITING BORC COMPLEX TO TREAT CANCERS WITH NF1 DEFICIENCY AND DYSREGULATED RAS SIGNALING” (THE TRUSTEES OF DARTMOUTH COLLEGE, priority 2019, published 2022).

Tests used:
Format in all cases: cell-based, human
PARP = assay: Western immunoblotting for PARP; details: U87-MG
Experimental: (§1) U87-MG cells were plated at 500,000 cells/well in 6-well plates and allowed to adhere overnight (Falcon). Medium was removed and replaced with fresh medium containing drugs or compounds for the indicated timepoints. Cells were collected after treatment by washing with PBS, harvested with trypsin plus agitation to detach cells, pelleted in a centrifuge and resuspended in PBS to wash. Cells were transferred to 1.5 mL microcentrifuge tubes, pelleted, and resuspended in RIPA lysis buffer (50 mM Tris pH 8.0, 150 mM NaCl, 1% nonidet P40, 0.5% sodium deoxycholate, and 0.05% SDS) containing 1 mM NaVO4, 1 mM NaF, 1 mM phenylmethylsulfonyl fluoride, 0.1 μg/mL antipain, 1 μM aprotinin, 100 μM benzamidine HCl, 0.1 μg/mL leupeptin, 0.1 μg/mL pepstatin, and 0.1 μg/mL soybean trypsin inhibitor. Protein was quantified using a BCA assay kit (Pierce). 50 μg of protein was prepared in 1× Laemmli sample buffer (50 mM Tris pH 6.8, 0.02% w/v bromophenol blue, 2% w/v SDS, 10% v/v glycerol, 1% v/v beta-mercaptoethanol, 12.5 mM EDTA) and separated by SDS-PAGE on a 4-15% polyacrylamide gradient gel (Bio-Rad). […]

p62 = assay: Western immunoblotting of autophagy marker p62; details: U87-MG, 12 h treatment +/- 12 h HCQ
Experimental: as §1

p21 = assay: Immunofluorescence of p21 expression and nucleus size; details: U87-MG, 2 μM, 24 h
Experimental: (§2) U87-MG cells were plated at a concentration of 50,000 cells/well onto precoated poly-D-lysine (PDL) coverslips (Neuvitro) in 24-well plates (Falcon) and allowed to adhere overnight. Medium was removed and replaced with treatment-laced media normalized to DMSO, and cells were treated for the indicated timepoints. At the time of collection, cells were washed with PBS and fixed with 4% paraformaldehyde without methanol (EMS) or 100% methanol (Fischer). Coverslips were washed with Tween20-containing PBS (PBST; Fischer). Following permeabilization with 0.5% Triton X-100 in PBS (Fischer), coverslips were blocked for 1 h at room temperature in IF Buffer (0.05% azide, 0.2% Triton X-100, 2% Normal Goat Serum or, for 8-OHG, Normal Donkey Serum). The following primary antibodies were used for 1 hour at room temperature unless specified: AlexaFluor 488 pre-conjugated anti-γ-H2AX (N1-431) mouse monoclonal (30 minutes; BD Biosciences), anti-cleaved caspase 3 (Asp175) rabbit polyclonal (Cell Signaling), anti-SQSTM1/p62 (D-3) mouse monoclonal (Santa Cruz), anti-8-Hydroxyguanosine goat polyclonal (1:200; Millipore), anti-LAMP1 (D4O1S) mouse monoclonal (O/N at 4° C.; Cell Signaling), anti-BNIP3L/Nix (D4R4B) rabbit monoclonal (O/N at 4° C.; Cell Signaling), anti-FLAG (M2) mouse monoclonal (2 hours at 37° C.; Sigma-Aldrich). […]

U87-MG cells [1] = assay: Hoechst cell death viability assay, U87-MG
Experimental: Cells were plated at 2,500 cells/well in 96-well plates and allowed to adhere overnight. Medium was removed and replaced with media containing compound starting at 100 μM, followed by 2-fold serial dilutions to generate a 10-point range of concentrations normalized with DMSO; one row was treated with DMSO as a control. Cells were incubated for the indicated timepoints. Upon collection, media was removed, cells were rinsed with PBS, and stored at −80° C. until all plates were collected. To process cells, plates were thawed with PBS, incubated with 1× saline-sodium citrate (SSC) buffer with 0.02% sodium dodecyl sulfate (SDS) for 1 hour at 37° C., followed by staining with 1 μg/mL Hoechst 33258 (Pierce). […] using a Spectramax M2 at an excitation of 355 nm and an emission of 460 nm, and absorbance was normalized to DMSO. Each experiment was repeated 2-3 times with 4 technical replicates per experiment.

LC3-II = assay: Western immunoblotting of autophagy marker LC3-I/II; details: U87-MG, 12 h treatment +/- 12 h HCQ co-treatment, total 24 h
Experimental: as §1

cleaved caspase-3 = assay: Immunofluorescence staining for cleaved caspase-3; details: U87-MG, 2 μM, 48 h
Experimental: as §2

U87-MG cells [2] = assay: β-Galactosidase senescence assay; details: 2 μM, 72 h
Experimental: U87-MG cells were plated at 100,000 cells/well and allowed to adhere overnight. Medium was removed and replaced with medium containing DMSO, 2 μM Y102, or 100 nM Doxorubicin for a total of 72 hours. Cells were collected and stained for β-galactosidase using the Senescence β-Galactosidase Staining Kit (Cell Signaling). 100 cells were counted per condition; graph represents results from triplicate experiments.

sequestosome-1 (p62) = assay: Immunofluorescence staining for p62; details: U87-MG, 24 h; 2 μM Y102, 50 μM HCQ; HCQ and Y102 compared with each other
Experimental: as §2

In the case of `Cn1cnnc1S/C=C/C(=O)c1ccc(F)cc1` [Y102], the “PARP western immunoblotting as check of absent caspase-3-mediated apoptosis” value (PARP) is reported as “confirmed”, the “p62 expression (western immunoblotting)” value (p62) is reported as “increased” and the nucleus size (p21) is reported as “increase”. For the same compound, the p21 expression (p21) was “increase”, the “growth inhibition, acute treatment of 2 hours compared to continuous treatment for 72 hours” value (U87-MG cells [1]) was “same degree of growth inhibition” and the “reversibility of effects after a 2 hour treatment” value (U87-MG cells [1]) was “irreversible”. For the same compound, the “concentration from which cell proliferation was inhibited” value (U87-MG cells [1]; continuous treatment, seven days, normalized to day zero plating) was ≥ 3.125 µM, the “sensitivity of NF1-deficient cell line to treatment” value (U87-MG cells [1]; up to 7 days, 100 μM to 0.039 μM, Hoechst 33258) was “sensitive” and the “LC3-II accumulation (western immunoblotting)” value (LC3-II) was “did not result in LC3-II accumulation”. For the same compound, the “amount of cleaved caspase-3 versus vehicle control” value (cleaved caspase-3) was “No difference”, the “senescence (senescence-associated β-galactosidase)” value (U87-MG cells [2]) was “no indication” and the “p62 expression compared to DMSO (immunofluorescence)” value (sequestosome-1 (p62)) was “increased”.
